In patent publication US11795195B2, “Antibody-drug conjugates including hemiasterlin derivative” (Sumitomo Pharma Co., Ltd., priority 2017, dated 2023):
pIC50: −log10 of the molar value.

Tests used:
[1] = Membrane Permeability Test, parallel artificial membrane permeability assay (PAMPA); type: in vitro ADME; conditions: pH 7.4, pH7.4, 37° C., read-out: Pe (pH7.4)
Method: By the parallel artificial membrane permeability assay (PAMPA), the membrane permeability of compounds of Examples was examined as follows: To the donor plate, System solution (pION inc.) and GIT Lipid-0 (pION inc.) were added in an amount of 200 μL and 4 μL for each well, respectively. To the acceptor plate, Acceptor Sink Buffer (pION inc.) was added in an amount of 200 μL. Both plates were superposed and incubated at 37° C. for 4 hours, and then, UVs in the solutions on the side of acceptor and on the side of donor were measured with an UV plate reader (190 to 500 nm). Compounds with poor UV absorption were measured by LC-MS. The permeability coefficient Pe (10^−6 cm/sec) of the drug was calculated by the following formula.
[formula] • ra=(VD/VA)Pa^(A-D)/Pa^(D-A)=rVPe^(A-D)/Pa^(D-A) • rV=(VD/VA) • VD=volume of doner well • VA=volume of acceptor well • t=permeation time • τ^SS=steady state time • R=retention • CD=CA=concentration in donor and acceptor well

Karpas-299 cells = test: Cellular Toxicity Test (1), CellTiter-Glo cell viability; type: cell-based, human; conditions: Homo sapiens, 96 h, cultured 4 days, cell viability
Method: Karpas-299 cells (European Collection of Authenticated Cell Cultures, hereinafter, ECACC), which are human lymphoma cell lines, were cultured in RPMI 1640 (GIBCO) containing 10% fetal bovine serum (MP Biomedicals) (hereinafter, referred to as the “culture medium”). Cells were prepared to be 2×10^6 cells/mL in the culture medium, and were added to a 96 well microplate for cell culturing in an amount of 50 μL for each well. Compounds of Examples or Comparative Example compound 4 times diluted with the culture medium in 8 stages were added to the microplate in an amount of 50 μL for each well. These were cultured at 37 degree under 5% CO2 for 4 days. After culturing, the microplate was taken out from the incubator, and was left at rest at room temperature for 10 minutes. To each well, 50 μL of CellTiter-Glo Luminescent Cell Viability Assay (Promega) was added, and the resultant mixture was stirred. This mixture was incubated at a dark place for 20 minutes. Using a microplate luminometer, luminescence at each well was measured, thereby calculating the cell viability. In addition, from the value of cell viability, the IC50 value was calculated.
The IC50 value was calculated by the following formula: IC50 (nM)=antilog(LOG10(a/b)×(e−d)/(c−d)+LOG10b) a: concentration a of test substance b: concentration b of test substance c: cell viability upon adding test substance with concentration a d: cell viability upon adding test substance with concentration b e: intermediate value between maximum and minimum among cell viabilities upon adding test substances with different concentrations (a and b are concentrations crossing the cell viability e, and a>b is indicated).
The cell viability at each concentration was calculated by the following formula: Cell Viability (%)=a′/b′×100 a′: mean value of luminescence amount of wells to which test substance was added (n=6) b′: mean value of luminescence amount of wells to which test substance was not added (n=6) (n represents the number of evaluations performed per test substance concentration).

SMILES: CN[C@H](C(=O)N[C@H](C(=O)N(C)[C@H](/C=C(\C)C(=O)N[C@H](CCC(=O)NCCN1C(=O)C=CC1=O)C(=O)O)C(C)C)C(C)(C)C)C(C)(C)C1CCCCC1 [Example M33]
- Papp at 4 h [1]: < 0.1 ×10⁻⁶ cm/s
- pIC50 (Karpas-299 cells): 6.64

SMILES: CN[C@@H](C(=O)N[C@H](C(=O)N(C)[C@H](/C=C(\C)C(=O)N[C@H](CCC(=O)NCCN1C(=O)C=CC1=O)C(=O)O)C(C)C)C(C)(C)C)C(C)(C)c1cccc(Br)c1 [Example M45]
- Papp at 4 h [1]: 4 ×10⁻⁶ cm/s
- pIC50 (Karpas-299 cells): 6.72

SMILES: CN[C@H](C(=O)N[C@H](C(=O)N(C)[C@H](/C=C(\C)C(=O)N[C@H](CCC(=O)O)C(=O)NCCN1C(=O)C=CC1=O)C(C)C)C(C)(C)C)C(C)(C)c1cn(C)c2ccccc12 [Example M25]
- Papp at 4 h [1]: < 0.1 ×10⁻⁶ cm/s
- pIC50 (Karpas-299 cells): 6.85

SMILES: CN[C@H](C(=O)N[C@H](C(=O)N(C)[C@H](/C=C(\C)C(=O)N[C@@H](CC(=O)O)C(=O)NCCN1C(=O)C=CC1=O)C(C)C)C(C)(C)C)C(C)(C)c1ccccc1 [Example M14]
- pIC50 (Karpas-299 cells): < 6.00

SMILES: CN[C@H](C(=O)N[C@H](C(=O)N(C)[C@H](/C=C(\C)C(=O)N[C@H](CCC(=O)NCCN1C(=O)C=CC1=O)C(=O)O)C(C)C)C(C)(C)C)C(C)(C)c1cccc(OC)c1 [Example M37]
- Papp at 4 h [1]: < 0.1 ×10⁻⁶ cm/s
- pIC50 (Karpas-299 cells): 6.39

SMILES: CN[C@H](C(=O)N[C@H](C(=O)N(C)[C@H](/C=C(\C)C(=O)N[C@H](CCC(=O)O)C(=O)NCCN1C(=O)C=CC1=O)C(C)C)C(C)(C)C)C(C)(C)c1ccccc1 [Example M15]
- pIC50 (Karpas-299 cells): < 6.00

SMILES: CN[C@H](C(=O)N[C@H](C(=O)N(C)[C@H](/C=C(\C)C(=O)N[C@H](CCC(=O)NCCN1C(=O)C=CC1=O)C(=O)O)C(C)C)C(C)(C)C)C(C)(C)c1cccc(F)c1 [Example M32]
- Papp at 4 h [1]: 0.6 ×10⁻⁶ cm/s
- pIC50 (Karpas-299 cells): 6.21

SMILES: CN[C@H](C(=O)N[C@H](C(=O)N(C)[C@H](/C=C(\C)C(=O)N[C@H](CCC(=O)NCCN1C(=O)C=CC1=O)C(=O)O)C(C)C)C(C)(C)C)C(C)(C)c1ccc(C(=O)O)cc1 [Example M36]
- Papp at 4 h [1]: 0.6 ×10⁻⁶ cm/s
- pIC50 (Karpas-299 cells): < 6.00

SMILES: CN[C@H](C(=O)N[C@H](C(=O)N(C)[C@H](/C=C(\C)C(=O)N[C@H](CC(=O)O)C(=O)NCCN1C(=O)C=CC1=O)C(C)C)C(C)(C)C)C(C)(C)c1ccccc1 [Example M13]
- pIC50 (Karpas-299 cells): 6.00

SMILES: CN[C@H](C(=O)N[C@H](C(=O)N(C)[C@H](/C=C(\C)C(=O)N[C@@H](CC(=O)O)C(=O)NCCN1C(=O)C=CC1=O)C(C)C)C(C)(C)C)C(C)(C)c1cn(C)c2ccccc12 [Example M21]
- Papp at 4 h [1]: < 0.1 ×10⁻⁶ cm/s
- pIC50 (Karpas-299 cells): 6.65

SMILES: CN[C@H](C(=O)N[C@H](C(=O)N(C)[C@H](/C=C(\C)C(=O)N[C@@H](CCC(=O)O)C(=O)NCCN1C(=O)C=CC1=O)C(C)C)C(C)(C)C)C(C)(C)c1ccccc1 [Example M12]
- Papp at 4 h [1]: < 0.1 ×10⁻⁶ cm/s
- pIC50 (Karpas-299 cells): 7.53

SMILES: CN[C@H](C(=O)N[C@H](C(=O)N(C)[C@H](/C=C(\C)C(=O)NCCCC[C@@H](NC(=O)CCCN1C(=O)C=CC1=O)C(=O)O)C(C)C)C(C)(C)C)C(C)(C)c1ccccc1 [Example M28]
- Papp at 4 h [1]: < 0.1 ×10⁻⁶ cm/s
- pIC50 (Karpas-299 cells): 7.29

SMILES: CN[C@H](C(=O)N[C@H](C(=O)N(C)[C@H](/C=C(\C)C(=O)N[C@@H](CC(=O)NCCN1C(=O)C=CC1=O)C(=O)O)C(C)C)C(C)(C)C)C(C)(C)c1cn(C)c2ccccc12 [Example M19]
- Papp at 4 h [1]: < 0.1 ×10⁻⁶ cm/s
- pIC50 (Karpas-299 cells): 6.77

SMILES: CN[C@H](C(=O)N[C@H](C(=O)N(C)[C@H](/C=C(\C)C(=O)N[C@H](CCC(=O)NCCCN1C(=O)C=CC1=O)C(=O)O)C(C)C)C(C)(C)C)C(C)(C)c1cn(C)c2ccccc12 [Example M23]
- Papp at 4 h [1]: < 0.1 ×10⁻⁶ cm/s
- pIC50 (Karpas-299 cells): 7.30

SMILES: C/C(=C\[C@H](C(C)C)N(C)C(=O)[C@@H](NC(=O)[C@@H](NC(=O)CCCCCN1C(=O)C=CC1=O)C(C)(C)c1cn(C)c2ccccc12)C(C)(C)C)C(=O)N[C@H](CCC(=O)O)C(=O)O [Example M48]
- Papp at 4 h [1]: 0.3 ×10⁻⁶ cm/s
- pIC50 (Karpas-299 cells): < 6.00

SMILES: CNC(C(=O)N[C@H](C(=O)N(C)[C@H](/C=C(\C)C(=O)N[C@H](CCC(=O)O)C(=O)O)C(C)C)C(C)(C)C)C(C)(C)c1ccc(OC(=O)CCN2C(=O)C=CC2=O)cc1 (stereo partly drawn) [Example M30]
- Papp at 4 h [1]: < 0.1 ×10⁻⁶ cm/s

SMILES: CN[C@H](C(=O)N[C@H](C(=O)N(C)[C@H](/C=C(\C)C(=O)N[C@@H](CCCCNC(=O)CCCN1C(=O)C=CC1=O)C(=O)O)C(C)C)C(C)(C)C)C(C)(C)c1cn(C)c2ccccc12 [Example M27]
- Papp at 4 h [1]: < 0.1 ×10⁻⁶ cm/s
- pIC50 (Karpas-299 cells): 6.72

SMILES: CN[C@H](C(=O)N[C@H](C(=O)N(C)[C@H](/C=C(\C)C(=O)N[C@H](CCC(=O)NCCN1C(=O)C=CC1=O)C(=O)O)C(C)C)C(C)(C)C)C(C)(C)c1ccc2ccccc2c1 [Example M40]
- Papp at 4 h [1]: < 0.1 ×10⁻⁶ cm/s
- pIC50 (Karpas-299 cells): 6.75

SMILES: C/C(=C\[C@H](C(C)C)N(C)C(=O)[C@@H](NC(=O)[C@H]1CCCCN1C(=O)CCN1C(=O)C=CC1=O)C(C)(C)C)C(=O)N[C@H](CCC(=O)O)C(=O)O [Example M29]
- Papp at 4 h [1]: < 0.1 ×10⁻⁶ cm/s
- pIC50 (Karpas-299 cells): < 6.00

SMILES: C/C(=C\[C@H](C(C)C)N(C)C(=O)[C@@H](NC(=O)[C@@H](N(C)C)C(C)(C)c1ccccc1)C(C)(C)C)C(=O)N[C@H](CCC(=O)NCCN1C(=O)C=CC1=O)C(=O)O [Example M49, N^2—((S,E)-4-((S)-2-((S)-2-(Dimethylamino)-3-methyl-3-phenylbutanamido)-N,3,3-trimethylbutanamido)-2,5-dimethylhex-2-enoyl)-N^5-(2-(2,5-dioxo-2,5-dihydro-1H-pyrrolo-1-yl)ethyl)-D-glutamine]
- pIC50 (Karpas-299 cells): < 6.00

SMILES: CN[C@H](C(=O)N[C@H](C(=O)N(C)[C@H](/C=C(\C)C(=O)N[C@H](CCC(=O)NCCN1C(=O)C=CC1=O)C(=O)O)C(C)C)C(C)(C)C)C(C)(C)c1cccc(C)c1 [Example M42]
- Papp at 4 h [1]: 4.9 ×10⁻⁶ cm/s
- pIC50 (Karpas-299 cells): 7.04

SMILES: CNC(C(=O)N[C@H](C(=O)N(C)[C@H](/C=C(\C)C(=O)N[C@H](CCC(=O)O)C(=O)O)C(C)C)C(C)(C)C)C(C)(C)c1ccc(C(=O)NCCN2C(=O)C=CC2=O)cc1 (stereo partly drawn) [Example M47, ((4S,E)-4-((2 S)-2-(3-(4-((2-(2,5-Dioxo-2,5-dihydro-1H-pyrrol-1-yl)ethyl)carbamoyl)phenyl)-3-methyl-2-(methylamino)butanamido)-N,3,3-trimethylbutanamido)-2,5-dimethylhex-2-enoyl)-D-glutamic Acid]
- Papp at 4 h [1]: 1.2 ×10⁻⁶ cm/s
- pIC50 (Karpas-299 cells): < 6.00

SMILES: CN[C@H](C(=O)N[C@H](C(=O)N(C)[C@H](/C=C(\C)C(=O)N[C@H](CCC(=O)N[C@@H](CCCCNC(=O)CCN1C(=O)C=CC1=O)C(=O)O)C(=O)O)C(C)C)C(C)(C)C)C(C)(C)c1cn(C)c2ccc(F)cc12 [Example M26]
- Papp at 4 h [1]: < 0.1 ×10⁻⁶ cm/s
- pIC50 (Karpas-299 cells): 7.10

SMILES: CN[C@H](C(=O)N[C@H](C(=O)N(C)[C@H](/C=C(\C)C(=O)N[C@H](CCC(=O)NCCN1C(=O)C=CC1=O)C(=O)O)C(C)C)C(C)(C)C)C(C)(C)c1cccc(Br)c1 [Example M44]
- Papp at 4 h [1]: 6.8 ×10⁻⁶ cm/s
- pIC50 (Karpas-299 cells): 8.04

SMILES: CN[C@H](C(=O)N[C@H](C(=O)N(C)[C@H](/C=C(\C)C(=O)N[C@H](CCC(=O)NCCN1C(=O)C=CC1=O)C(=O)O)C(C)C)C(C)(C)C)C(C)(C)c1cccs1 [Example M39]
- Papp at 4 h [1]: < 0.1 ×10⁻⁶ cm/s
- pIC50 (Karpas-299 cells): 6.42

SMILES: CN[C@H](C(=O)N[C@H](C(=O)N(C)[C@H](/C=C(\C)C(=O)N[C@H](CCC(=O)NCCCCN1C(=O)C=CC1=O)C(=O)O)C(C)C)C(C)(C)C)C(C)(C)c1ccccc1 [Example M17]
- Papp at 4 h [1]: < 0.1 ×10⁻⁶ cm/s
- pIC50 (Karpas-299 cells): 7.46

SMILES: CN[C@H](C(=O)N[C@H](C(=O)N(C)[C@H](/C=C(\C)C(=O)N[C@H](CCC(=O)NCCCN1C(=O)C=CC1=O)C(=O)O)C(C)C)C(C)(C)C)C(C)(C)c1ccccc1 [Example M16]
- pIC50 (Karpas-299 cells): 6.24

SMILES: CN[C@H](C(=O)N[C@H](C(=O)N(C)[C@H](/C=C(\C)C(=O)N[C@@H](CCC(=O)NCCN1C(=O)C=CC1=O)C(=O)O)C(C)C)C(C)(C)C)C(C)(C)c1cn(C)c2ccccc12 [Example M18]
- Papp at 4 h [1]: < 0.1 ×10⁻⁶ cm/s
- pIC50 (Karpas-299 cells): 6.83

SMILES: CN[C@H](C(=O)N[C@H](C(=O)N(C)[C@H](/C=C(\C)C(=O)N[C@H](CCC(=O)NCCN1C(=O)C=CC1=O)C(=O)O)C(C)C)C(C)(C)C)C(C)(C)c1cccc(C(F)(F)F)c1 [Example M31]
- Papp at 4 h [1]: 1 ×10⁻⁶ cm/s
- pIC50 (Karpas-299 cells): 6.71

SMILES: CN[C@H](C(=O)N[C@H](C(=O)N(C)[C@H](/C=C(\C)C(=O)N[C@@H](CC(=O)NCCN1C(=O)C=CC1=O)C(=O)O)C(C)C)C(C)(C)C)C(C)(C)c1ccccc1 [Example M10]
- Papp at 4 h [1]: < 0.1 ×10⁻⁶ cm/s
- pIC50 (Karpas-299 cells): 6.26
